According to patent US20260022143A1, “Cyclic Peptide Inhibitors of IL-23” (JANSSEN PHARMACEUTICA NV, priority 2022, published 2026):
Starred links: 1 amine or outer side, 2 acyl side, 3 side chain; linkers in the order of their positions; H or OH if unused. Positions of bridges follow the written chain, without caps; N, C: chain ends. Non-standard residues stand in square brackets, D forms with d. Residues, ends and D or L forms follow the SMILES beside them. Groups on a side chain read outwards from the residue. *: point of attachment. Me3N+CH2CH2(OCH2CH2)4CO = C[N+](C)(C)CCOCCOCCOCCOCCC(=O)*; Me3N+(CH2)2O(CH2)2O(CH2)2CO = C[N+](C)(C)CCOCCOCCC(=O)*; Trp(7-Me) = Cc1cccc2c(C[C@H](N)C(=O)O)c[nH]c12; Abu(4-yl) = O=C([C@H](CC[*:3])N[*:1])[*:2]; dLys(Me3) = C[N+](C)(C)CCCC[C@@H](N)C(=O)O; Dab(NMeAc) = CC(=O)N(C)CC[C@H](N)C(=O)O; X1 = CN(CC[C@H](N[*:1])C(=O)[*:2])[*:3]; γGlu = O=C(O)[C@H](CCC(=O)[*:2])N[*:1]; 2Nal = N[C@@H](Cc1ccc2ccccc2c1)C(=O)O; AEF = NCCOc1ccc(C[C@H](N)C(=O)O)cc1; 3Pal = N[C@@H](Cc1cccnc1)C(=O)O; Lys(Me) = CNCCCC[C@H](N)C(=O)O; X5 = C[N+](C)(C)CCOCCOCC(=O)*; NMeK = CN[C@@H](CCCCN)C(=O)O; Pen = CC(C)(S)[C@H](N)C(=O)O; Lauroyl = CCCCCCCCCCCC(=O)*; αMeC = C[C@](N)(CS)C(=O)O; Thp = NC1(C(=O)O)CCOCC1; X3 = C[N+](C)(C)CCCCC*; AEEA = NCCOCCOCC(=O)O; Me2NCH2CH2 = CN(C)CC*; Sar = CNCC(=O)O

How the values were obtained:
IL-23R = target: T1, IL-23R (Homo sapiens, UniProt Q5VWK5); test: IL23R Reporter Assay; type: cell-based; conditions: HEK293 cells containing IL-23R, IL-12RP1 and STAT-inducible firefly luciferase reporter; 10 ng/mL IL-23 (EC90); 5 h at 37° C.; read-out: IL23R Reporter Assay
T1 construct: host or cells: HEK293
T1 sequence (Q5VWK5 24-629): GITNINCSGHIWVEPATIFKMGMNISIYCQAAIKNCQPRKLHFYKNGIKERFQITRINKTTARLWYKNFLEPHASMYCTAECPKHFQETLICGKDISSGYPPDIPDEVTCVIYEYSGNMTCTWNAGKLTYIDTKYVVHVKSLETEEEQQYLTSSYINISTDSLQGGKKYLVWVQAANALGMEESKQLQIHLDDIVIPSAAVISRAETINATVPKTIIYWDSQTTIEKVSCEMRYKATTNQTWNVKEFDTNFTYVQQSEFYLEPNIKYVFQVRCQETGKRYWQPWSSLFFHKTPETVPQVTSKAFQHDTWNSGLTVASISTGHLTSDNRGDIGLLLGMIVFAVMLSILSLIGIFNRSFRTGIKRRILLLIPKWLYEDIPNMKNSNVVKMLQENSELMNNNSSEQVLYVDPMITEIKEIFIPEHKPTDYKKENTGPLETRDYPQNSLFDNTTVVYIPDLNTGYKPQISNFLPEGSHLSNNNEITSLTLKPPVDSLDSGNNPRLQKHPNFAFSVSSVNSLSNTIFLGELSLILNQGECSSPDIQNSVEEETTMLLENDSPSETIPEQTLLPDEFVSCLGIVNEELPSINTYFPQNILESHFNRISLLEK

[1] = Exposed Polar Surface Area (EPSA); type: physicochemical; conditions: SFC on Chirex 3014 column; sample 1 mM DMSO stock; read-out: EPSA
In short: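 Polarity descriptor in Å² derived from retention time using 8 calibration standards re-run every 20 compounds. Duplicate injections of 1 mM DMSO stock; linear 5–60% modifier gradient (20 mM ammonium formate in MeOH) with CO2 at 4 mL/min, 35 °C, on a Chirex 3014 column.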

Structure (SMILES) | IC50 (IL-23R) [nM] | EPSA [1] [A^2]
CC(=O)NCCCC[C@H](NC(=O)C1(NC(=O)[C@H](Cc2ccc3ccccc3c2)NC(=O)[C@H](Cc2ccc(OCCN)cc2)NC(=O)[C@H]2NC(=O)[C@H](CCCCN(C)C(C)=O)NC(=O)[C@H](Cc3c[nH]c4c(C)cccc34)NC(=O)[C@H]([C@@H](C)O)NC(=O)[C@H](CC(=O)N(C)C)NC(=O)[C@@H](NC(=O)CCOCCOCC[N+](C)(C)C)C(C)(C)SSC2(C)C)CCOCC1)C(=O)N[C@@H](CC(N)=O)C(=O)N[C@@H](Cc1cccnc1)C(=O)N(C)CC(N)=O [compound 149, cPEG3aCO-Pen(3)-N(N(Me)2)-T-7MeW-K(NMeAc)-Pen(3)-AEF-2Nal-THP-K(Ac)-N-3Pya-Sar-CONH2] ({Me3N+(CH2)2O(CH2)2O(CH2)2CO}-[Pen]D(NMe2)T[Trp(7-Me)][Lys(Me)](Ac)[Pen][AEF][2Nal][Thp]K(Ac)N[3Pal][Sar]-NH2; disulfide 1-6) | 2.1 | 157
CCCCCCCCCCCC(=O)N[C@@H](CCC(=O)NCCOCCOCC(=O)NCCOCCOCC(=O)NCCCC[C@@H]1NC(=O)[C@@H](NC(=O)CCOCCOCC[N+](C)(C)C)C(C)(C)SSC(C)(C)[C@@H](C(=O)N[C@@H](Cc2ccc(OCCCCC[N+](C)(C)C)cc2)C(=O)N[C@@H](Cc2ccc3ccccc3c2)C(=O)NC2(C(=O)N[C@@H](CCCCN(C)C(C)=O)C(=O)N[C@@H](CC(N)=O)C(=O)N[C@@H](Cc3cccnc3)C(=O)N(C)[C@@H](CCCCNC(=O)COCCOCCNC(=O)COCCOCCNC(=O)CC[C@H](NC(=O)CCCCCCCCCCC)C(=O)O)C(N)=O)CCOCC2)NC(=O)[C@H](CCCCNC(C)=O)NC(=O)[C@H](Cc2c[nH]c3c(C)cccc23)NC(=O)[C@H]([C@@H](C)O)NC1=O)C(=O)O [compound 356, cPEG3aCO-Pen(3)-K(PEG2PEG2gEC12)-T-7MeW-K(Ac)-Pen(3)-TMAPF-2Nal-THP-K(NMeac)-N-3Pya-NMeK(PEG2PEG2gEC12)-CONH2] ({Me3N+(CH2)2O(CH2)2O(CH2)2CO}-[Pen]K([AEEA-AEEA-γGlu-Lauroyl])T[Trp(7-Me)]K(Ac)[Pen]Y(X3)[2Nal][Thp][Lys(Me)](Ac)N[3Pal][NMeK]([AEEA-AEEA-γGlu-Lauroyl])-NH2; disulfide 1-6) | 280 | 174
CC(=O)NCCCC[C@@H]1NC(=O)[C@H](Cc2c[nH]c3c(C)cccc23)NC(=O)[C@H]([C@@H](C)O)NC(=O)[C@H](CC(N)=O)NC(=O)[C@@H](NC(=O)[C@@H](CCCC[N+](C)(C)C)NC(C)=O)C(C)(C)SSC(C)(C)[C@@H](C(=O)N[C@@H](Cc2ccc(OCCN)cc2)C(=O)N[C@@H](Cc2ccc3ccccc3c2)C(=O)NC2(C(=O)N[C@@H](CCCCNC(C)=O)C(=O)N[C@@H](CC(N)=O)C(=O)N[C@@H](Cc3cccnc3)C(=O)N(C)CC(N)=O)CCOCC2)NC1=O [compound 447] (Ac-[dLys(Me3)][Pen]NT[Trp(7-Me)]K(Ac)[Pen][AEF][2Nal][Thp]K(Ac)N[3Pal][Sar]-NH2; disulfide 2-7 (inferred)) | 2 | 171
CC(=O)N[C@@H]1C(=O)N[C@@H](C)C(=O)N[C@@H]([C@@H](C)O)C(=O)N[C@@H](Cc2c[nH]c3c(C)cccc23)C(=O)N[C@@H](C)C(=O)N[C@H](C(=O)N[C@@H](Cc2ccc(OCCN(C)C)cc2)C(=O)N[C@@H](Cc2ccc3ccccc3c2)C(=O)NC2(C(=O)N[C@@H](C)C(=O)N[C@@H](CC(N)=O)C(=O)N[C@@H](Cc3cccnc3)C(=O)N(C)CC(=O)N(C)C)CCOCC2)C(C)(C)SSC1(C)C [compound 121] (Ac-[Pen]AT[Trp(7-Me)]A[Pen]Y(Me2NCH2CH2)[2Nal][Thp]AN[3Pal][Sar]-NMe2; disulfide 1-6) | 13 | 145
CC(=O)NCCCC[C@@H]1NC(=O)[C@H](Cc2c[nH]c3ccccc23)NC(=O)[C@H]([C@@H](C)O)NC(=O)[C@H](CC(N)=O)NC(=O)[C@@H](NC(=O)[C@@H](CCCC[N+](C)(C)C)NC(C)=O)CCSC[C@@](C)(C(=O)N[C@@H](Cc2ccc(OCCCCC[N+](C)(C)C)cc2)C(=O)N[C@@H](Cc2ccc3ccccc3c2)C(=O)NC2(C(=O)N[C@@H](CCC(=O)O)C(=O)N[C@@H](CC(N)=O)C(=O)N[C@@H](Cc3cccnc3)C(=O)N(C)CC(N)=O)CCOCC2)NC1=O [compound 567, MeCO-k(Me)3-Abu(1)-N-T-W-K(Ac)-aMeC(1)-TMAPF-2Nal-THP-E-N-3Pya-Sar-CONH2] (Ac-[dLys(Me3)][Abu(4-yl)]NTWK(Ac)[αMeC]Y(X3)[2Nal][Thp]EN[3Pal][Sar]-NH2; thioether 2-7) | 3.1 | 172

Results, then the compound that gave them:

IC50 (IL-23R) [nM] | EPSA [1] [A^2] | Structure (SMILES)
110 | 148 | CC(=O)N[C@@H]1C(=O)N[C@@H](CC(=O)N(C)C)C(=O)N[C@@H]([C@@H](C)O)C(=O)N[C@@H](Cc2c[nH]c3c(C)cccc23)C(=O)N[C@H](COCCOCC[N+](C)(C)C)C(=O)N[C@H](C(=O)N[C@@H](Cc2ccc(OCCOCCOCC[N+](C)(C)C)cc2)C(=O)N[C@@H](Cc2ccc3ccccc3c2)C(=O)NC2(C(=O)N[C@@H](CCCCN(C)C(C)=O)C(=O)N[C@@H](CC(N)=O)C(=O)N[C@@H](Cc3cccnc3)C(=O)N(C)CC(=O)N(C)C)CCOCC2)C(C)(C)SSC1(C)C (relative stereo) [compound 268, MeCO-Pen(3)-N(N(Me)2)-T-7MeW-APEG2Ser(R*)-Pen(3)-APEG3F-2Nal-THP-K(NMeAc)-N-3Pya-Sar-CON(Me)2]
> 1190 | 159 | CC(=O)N(C)CCCC[C@@H]1NC(=O)[C@H](Cc2c[nH]c3c(C)cccc23)NC(=O)[C@H]([C@@H](C)O)NC(=O)[C@H](CC(=O)N(C)C)NC(=O)[C@@H](NC(=O)CCOCCOCC[N+](C)(C)C)C(C)(C)SSC(C)(C)[C@@H](C(=O)N[C@@H](Cc2ccc(OCCCCC[N+](C)(C)C)cc2)C(=O)N[C@@H](C)C(=O)NC2(C(=O)N[C@@H](CCCCN(C)C(C)=O)C(=O)N[C@@H](CC(N)=O)C(=O)N[C@@H](Cc3cccnc3)C(=O)N(C)CC(=O)N(C)C)CCOCC2)NC1=O [compound 500, cPEG3aCO-Pen(3)-N(N(Me)2)-T-7MeW-K(NMeAc)-Pen(3)-TMApF-A-THP-K(NMeAc)-N-3Pya-Sar-CON(Me)2] ({Me3N+(CH2)2O(CH2)2O(CH2)2CO}-[Pen]D(NMe2)T[Trp(7-Me)][Lys(Me)](Ac)[Pen]Y(X3)A[Thp][Lys(Me)](Ac)N[3Pal][Sar]-NMe2; disulfide 1-6)
2 | 155 | Cc1cccc2c(C[C@@H]3NC(=O)[C@H]([C@@H](C)O)NC(=O)[C@H](CC(N)=O)NC(=O)[C@@H](NC(=O)CCOCCOCC[N+](C)(C)C)C(C)(C)SSC(C)(C)[C@@H](C(=O)N[C@@H](Cc4ccc(OCCN)cc4)C(=O)N[C@@H](Cc4ccc5ccccc5c4)C(=O)NC4(C(=O)N[C@@H](CCC(=O)N(C)C)C(=O)N[C@@H](CC(N)=O)C(=O)N[C@@H](Cc5cccnc5)C(=O)N(C)CC(=O)N(C)C)CCOCC4)NC(=O)[C@H](CCC(=O)N(C)C)NC3=O)c[nH]c12 [compound 156, cPEG3aCO-Pen(3)-N-T-7MeW-Q(N(Me)2)-Pen(3)-AEF-2Nal-THP-Q(N(Me)2)-N-3Pya-Sar-CON(Me)2] ({Me3N+(CH2)2O(CH2)2O(CH2)2CO}-[Pen]NT[Trp(7-Me)]E(NMe2)[Pen][AEF][2Nal][Thp]E(NMe2)N[3Pal][Sar]-NMe2; disulfide 1-6)
2 | 149 | CC(=O)N(C)CCCC[C@@H]1NC(=O)[C@H](Cc2c[nH]c3c(C)cccc23)NC(=O)[C@H]([C@@H](C)O)NC(=O)[C@H](CC(=O)N(C)C)NC(=O)[C@@H](NC(=O)CCOCCOCC[N+](C)(C)C)C(C)(C)SSC(C)(C)[C@@H](C(=O)N[C@@H](Cc2ccc(OCCN)cc2)C(=O)N[C@@H](Cc2ccc3ccccc3c2)C(=O)NC2(C(=O)N[C@@H](CCN(C)C(C)=O)C(=O)N[C@@H](CC(N)=O)C(=O)N[C@@H](Cc3cccnc3)C(=O)N(C)CC(=O)N(C)C)CCOCC2)NC1=O [compound 177, cPEG3aCO-Pen(3)-N(N(Me)2)-T-7MeW-K(NMeAc)-Pen(3)-AEF-2Nal-THP-Dab(NMeAc)-N-3Pya-Sar-CON(Me)2] ({Me3N+(CH2)2O(CH2)2O(CH2)2CO}-[Pen]D(NMe2)T[Trp(7-Me)][Lys(Me)](Ac)[Pen][AEF][2Nal][Thp][Dab(NMeAc)]N[3Pal][Sar]-NMe2; disulfide 1-6)
6.5 | 145 | Cc1cccc2c(C[C@@H]3NC(=O)[C@H]([C@@H](C)O)NC(=O)[C@H](CC(=O)N(C)C)NC(=O)[C@@H](NC(=O)CCOCCOCCOCCOCC[N+](C)(C)C)C(C)(C)SSC(C)(C)[C@@H](C(=O)N[C@@H](Cc4ccc(OCCN)cc4)C(=O)N[C@@H](Cc4ccc5ccccc5c4)C(=O)NC4(C(=O)N[C@@H](CCN(C)C(=O)COCCOCC[N+](C)(C)C)C(=O)N[C@@H](CC(N)=O)C(=O)N[C@@H](Cc5cccnc5)C(=O)N(C)CC(=O)N(C)C)CCOCC4)NC(=O)[C@H](CCN(C)C(=O)COCCOCC[N+](C)(C)C)NC3=O)c[nH]c12 [compound 172, cPEG5aCO-Pen(3)-N(N(Me)2)-T-7MeW-Dab(NMecPEG2a)-Pen(3)-AEF-2Nal-THP-Dab(NMecPEG2a)-N-3Pya-Sar-CON(Me)2] ({Me3N+CH2CH2(OCH2CH2)4CO}-[Pen]D(NMe2)T[Trp(7-Me)][X1](X5)[Pen][AEF][2Nal][Thp][X1](X5)N[3Pal][Sar]-NMe2; disulfide 1-6)
